Experimental data published in ChEMBL document CHEMBL4800722, “Data for DCP probe BI 605906” (2021).

Experiments:
[1] = biological target: Natriuretic peptides A (Cavia porcellus) (UniProt P27596); details: Compound concentration 100.0 uM
[2] = biological target: Calcium/calmodulin-dependent protein kinase type 1G (Homo sapiens) (UniProt Q96NX5); details: Compound concentration 1.0 uM
[3] = biological target: Sodium/potassium-transporting ATPase (Sus scrofa) (UniProt P05027+P05024+D2WKD8+D2WKD7+F1ST41); details: Compound concentration 10.0 uM
[4] = biological target: CDC7/DBF4 (Cell division cycle 7-related protein kinase/Activator of S phase kinase) (Homo sapiens) (UniProt Q9UBU7+O00311); experiment: CDC7/DBF4 Invitrogen Lab (UK) kinase screen (BI); type: protein-complex assay; details: Compound concentration 1.0 uM
[5] = biological target: Ankyrin repeat and protein kinase domain-containing protein 1 (Homo sapiens) (UniProt Q8NFD2); details: Compound concentration 1.0 uM
[6] = species on record: Rattus norvegicus; details: Compound concentration 10.0 uM
[7] = biological target: cAMP-dependent protein kinase catalytic subunit alpha (Homo sapiens) (UniProt P17612)
[8] = biological target: Casein kinase I isoform alpha-like (Homo sapiens) (UniProt Q8N752); experiment: CSNK1A1L Invitrogen Lab (UK) kinase screen (BI); details: Compound concentration 1.0 uM
Sequence of Casein kinase I isoform alpha-like (Homo sapiens) (Q8N752 whole entry, canonical isoform): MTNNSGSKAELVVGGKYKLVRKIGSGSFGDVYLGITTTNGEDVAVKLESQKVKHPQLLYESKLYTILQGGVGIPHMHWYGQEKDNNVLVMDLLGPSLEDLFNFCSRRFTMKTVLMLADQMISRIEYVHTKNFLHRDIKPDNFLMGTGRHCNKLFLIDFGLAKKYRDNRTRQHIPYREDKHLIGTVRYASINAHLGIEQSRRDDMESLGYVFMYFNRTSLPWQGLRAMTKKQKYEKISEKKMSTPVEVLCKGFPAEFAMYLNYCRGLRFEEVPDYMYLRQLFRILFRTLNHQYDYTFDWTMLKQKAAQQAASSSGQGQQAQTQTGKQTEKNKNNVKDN

[9] = biological target: Alpha-1B adrenergic receptor (Homo sapiens) (UniProt P35368); details: Compound concentration 10.0 uM
Sequence of Alpha-1B adrenergic receptor (Homo sapiens) (P35368 whole entry, the tested form may be a part): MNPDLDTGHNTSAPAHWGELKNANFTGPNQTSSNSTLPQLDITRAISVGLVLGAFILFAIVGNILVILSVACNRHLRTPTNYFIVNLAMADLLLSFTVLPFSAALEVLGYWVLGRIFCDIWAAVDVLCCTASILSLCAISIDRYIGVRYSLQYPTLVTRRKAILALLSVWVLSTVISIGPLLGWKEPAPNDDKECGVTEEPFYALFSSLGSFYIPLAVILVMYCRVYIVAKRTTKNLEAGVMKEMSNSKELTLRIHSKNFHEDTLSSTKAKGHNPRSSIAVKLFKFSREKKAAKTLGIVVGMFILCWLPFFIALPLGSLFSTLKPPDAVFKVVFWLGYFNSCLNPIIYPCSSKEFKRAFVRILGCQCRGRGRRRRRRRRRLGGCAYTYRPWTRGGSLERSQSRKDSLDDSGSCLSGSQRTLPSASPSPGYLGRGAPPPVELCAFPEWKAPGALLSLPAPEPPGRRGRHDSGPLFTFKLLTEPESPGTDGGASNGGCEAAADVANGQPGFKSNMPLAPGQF

[10] = biological target: Discoidin domain-containing receptor 2 (Homo sapiens) (UniProt Q16832); details: Compound concentration 1.0 uM
[11] = biological target: Ribosomal protein S6 kinase alpha-1 (Homo sapiens) (UniProt Q15418); details: Compound concentration 1.0 uM
[12] = biological target: RAC-alpha serine/threonine-protein kinase (Homo sapiens) (UniProt P31749)
Sequence of RAC-alpha serine/threonine-protein kinase (Homo sapiens) (P31749 whole entry): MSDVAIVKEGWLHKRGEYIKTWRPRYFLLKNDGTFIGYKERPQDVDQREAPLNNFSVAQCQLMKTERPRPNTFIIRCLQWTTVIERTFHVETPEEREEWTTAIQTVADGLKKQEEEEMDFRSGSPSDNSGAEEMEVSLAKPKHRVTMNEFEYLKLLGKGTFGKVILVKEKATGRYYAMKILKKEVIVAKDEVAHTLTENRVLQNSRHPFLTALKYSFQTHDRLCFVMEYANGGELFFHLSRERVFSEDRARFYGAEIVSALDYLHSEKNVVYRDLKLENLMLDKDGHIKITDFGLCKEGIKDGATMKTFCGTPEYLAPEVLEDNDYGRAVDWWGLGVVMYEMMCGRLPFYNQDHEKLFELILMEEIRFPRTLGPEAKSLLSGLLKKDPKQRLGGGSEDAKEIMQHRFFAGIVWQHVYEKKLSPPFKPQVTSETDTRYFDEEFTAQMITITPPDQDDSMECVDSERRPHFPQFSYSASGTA

[13] = biological target: Aurora kinase A (Homo sapiens) (UniProt O14965)
Sequence of Aurora kinase A (Homo sapiens) (O14965 whole entry): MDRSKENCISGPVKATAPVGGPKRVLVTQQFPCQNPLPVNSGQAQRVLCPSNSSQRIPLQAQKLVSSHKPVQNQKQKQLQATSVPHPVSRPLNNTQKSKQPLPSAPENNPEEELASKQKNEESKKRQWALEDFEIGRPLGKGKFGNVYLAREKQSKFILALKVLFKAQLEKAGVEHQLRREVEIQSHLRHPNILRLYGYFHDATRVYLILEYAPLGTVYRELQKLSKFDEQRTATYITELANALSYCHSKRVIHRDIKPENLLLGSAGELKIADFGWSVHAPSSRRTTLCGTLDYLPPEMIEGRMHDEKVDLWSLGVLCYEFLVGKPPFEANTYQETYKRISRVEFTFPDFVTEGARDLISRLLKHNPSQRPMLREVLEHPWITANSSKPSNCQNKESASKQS

[14] = biological target: Mitogen-activated protein kinase kinase kinase kinase 1 (Homo sapiens) (UniProt Q92918); details: Compound concentration 1.0 uM
[15] = biological target: Ribosomal protein S6 kinase alpha-2 (Homo sapiens) (UniProt Q15349); details: Compound concentration 1.0 uM
[16] = biological target: High affinity nerve growth factor receptor (Homo sapiens) (UniProt P04629); experiment: NTRK1 Invitrogen Lab (UK) kinase screen (BI)
Sequence of High affinity nerve growth factor receptor (Homo sapiens) (P04629 33-796 limits assumed): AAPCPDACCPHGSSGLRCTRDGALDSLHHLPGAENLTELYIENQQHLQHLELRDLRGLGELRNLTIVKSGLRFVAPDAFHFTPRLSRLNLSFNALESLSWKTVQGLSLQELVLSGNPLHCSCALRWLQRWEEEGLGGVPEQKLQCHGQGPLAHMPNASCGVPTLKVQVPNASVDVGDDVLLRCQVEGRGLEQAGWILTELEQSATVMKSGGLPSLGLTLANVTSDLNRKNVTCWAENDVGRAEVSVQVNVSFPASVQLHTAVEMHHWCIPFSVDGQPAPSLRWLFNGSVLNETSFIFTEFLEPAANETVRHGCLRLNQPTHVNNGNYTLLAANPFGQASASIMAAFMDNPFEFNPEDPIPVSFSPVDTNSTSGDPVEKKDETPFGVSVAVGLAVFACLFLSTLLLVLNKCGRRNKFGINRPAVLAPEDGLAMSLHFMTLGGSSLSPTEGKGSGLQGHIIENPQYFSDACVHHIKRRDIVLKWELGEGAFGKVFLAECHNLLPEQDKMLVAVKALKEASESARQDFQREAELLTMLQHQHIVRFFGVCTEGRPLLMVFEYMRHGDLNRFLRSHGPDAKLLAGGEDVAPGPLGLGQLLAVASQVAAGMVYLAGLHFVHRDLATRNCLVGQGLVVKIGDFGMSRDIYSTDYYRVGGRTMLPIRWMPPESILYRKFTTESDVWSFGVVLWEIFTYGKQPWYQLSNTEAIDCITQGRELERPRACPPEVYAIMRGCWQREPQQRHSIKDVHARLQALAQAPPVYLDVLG

[17] = biological target: Serine/threonine-protein kinase pim-3 (Homo sapiens) (UniProt Q86V86); experiment: PIM3 Invitrogen Lab (UK) kinase screen (BI); details: Compound concentration 1.0 uM
[18] = biological target: Mitogen-activated protein kinase kinase kinase 7 (Homo sapiens) (UniProt O43318); details: Compound concentration 1.0 uM
[19] = biological target: Serine/threonine-protein kinase BRSK1 (Homo sapiens) (UniProt Q8TDC3); details: Compound concentration 1.0 uM
[20] = biological target: Mitogen-activated protein kinase kinase kinase 5 (Homo sapiens) (UniProt Q99683); details: Compound concentration 1.0 uM
Sequence of Mitogen-activated protein kinase kinase kinase 5 (Homo sapiens) (Q99683 whole entry): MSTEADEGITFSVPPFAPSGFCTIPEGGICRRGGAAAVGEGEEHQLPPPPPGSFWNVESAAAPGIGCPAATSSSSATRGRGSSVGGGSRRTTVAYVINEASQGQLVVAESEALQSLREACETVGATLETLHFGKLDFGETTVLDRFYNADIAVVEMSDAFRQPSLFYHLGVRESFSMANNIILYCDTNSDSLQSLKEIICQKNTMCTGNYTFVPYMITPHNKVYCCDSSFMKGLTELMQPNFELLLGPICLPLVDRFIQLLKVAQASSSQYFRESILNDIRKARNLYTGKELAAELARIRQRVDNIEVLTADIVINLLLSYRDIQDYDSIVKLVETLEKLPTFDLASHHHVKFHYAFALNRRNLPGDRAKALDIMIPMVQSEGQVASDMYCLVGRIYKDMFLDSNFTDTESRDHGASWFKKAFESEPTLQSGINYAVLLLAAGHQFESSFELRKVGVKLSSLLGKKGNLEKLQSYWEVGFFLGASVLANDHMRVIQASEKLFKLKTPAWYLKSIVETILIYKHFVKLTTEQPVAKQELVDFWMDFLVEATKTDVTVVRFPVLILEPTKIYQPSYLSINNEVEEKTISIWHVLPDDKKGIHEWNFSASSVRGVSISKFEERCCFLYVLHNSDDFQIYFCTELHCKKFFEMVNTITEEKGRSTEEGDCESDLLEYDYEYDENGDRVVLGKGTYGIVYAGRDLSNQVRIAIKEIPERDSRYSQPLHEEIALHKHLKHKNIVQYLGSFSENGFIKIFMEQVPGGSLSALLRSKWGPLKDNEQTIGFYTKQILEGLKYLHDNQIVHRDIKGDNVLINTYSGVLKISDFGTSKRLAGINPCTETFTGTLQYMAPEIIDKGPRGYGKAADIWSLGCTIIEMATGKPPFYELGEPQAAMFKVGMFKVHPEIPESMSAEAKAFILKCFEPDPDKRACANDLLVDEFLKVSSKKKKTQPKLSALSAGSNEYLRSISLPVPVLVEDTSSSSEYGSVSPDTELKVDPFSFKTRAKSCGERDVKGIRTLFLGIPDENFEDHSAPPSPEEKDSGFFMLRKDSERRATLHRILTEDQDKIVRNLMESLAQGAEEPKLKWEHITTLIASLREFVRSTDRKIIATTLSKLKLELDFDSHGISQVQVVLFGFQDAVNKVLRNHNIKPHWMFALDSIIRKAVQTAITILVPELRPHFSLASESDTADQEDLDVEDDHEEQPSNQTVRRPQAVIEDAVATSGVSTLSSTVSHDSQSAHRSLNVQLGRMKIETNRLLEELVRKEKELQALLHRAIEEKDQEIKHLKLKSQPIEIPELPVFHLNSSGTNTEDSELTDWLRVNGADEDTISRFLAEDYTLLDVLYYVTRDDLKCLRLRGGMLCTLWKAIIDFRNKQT

[21] = biological target: CDK8/Cyclin C (Homo sapiens) (UniProt P49336+P24863); details: Compound concentration 1.0 uM
[22] = biological target: Serine/threonine-protein kinase PLK2 (Homo sapiens) (UniProt Q9NYY3); details: Compound concentration 1.0 uM
[23] = biological target: Amine oxidase [flavin-containing] A (MAOA) (Homo sapiens, UniProt P21397); experiment: MAOA Eurofins SafetyScreen44 (BI); parameters: mode of action inhibitor; details: compound concentration 10 uM, read-out: % Ctrl
[24] = biological target: Prostaglandin G/H synthase 1 (Homo sapiens) (UniProt P23219); details: Compound concentration 10.0 uM
[25] = biological target: Mitogen-activated protein kinase kinase kinase kinase 3 (Homo sapiens) (UniProt Q8IVH8); details: Compound concentration 1.0 uM
[26] = biological target: Tyrosine-protein kinase Fer (Homo sapiens) (UniProt P16591); details: Compound concentration 1.0 uM
[27] = biological target: Macrophage colony-stimulating factor 1 receptor (Homo sapiens) (UniProt P07333)
Sequence of Macrophage colony-stimulating factor 1 receptor (Homo sapiens) (P07333 whole entry): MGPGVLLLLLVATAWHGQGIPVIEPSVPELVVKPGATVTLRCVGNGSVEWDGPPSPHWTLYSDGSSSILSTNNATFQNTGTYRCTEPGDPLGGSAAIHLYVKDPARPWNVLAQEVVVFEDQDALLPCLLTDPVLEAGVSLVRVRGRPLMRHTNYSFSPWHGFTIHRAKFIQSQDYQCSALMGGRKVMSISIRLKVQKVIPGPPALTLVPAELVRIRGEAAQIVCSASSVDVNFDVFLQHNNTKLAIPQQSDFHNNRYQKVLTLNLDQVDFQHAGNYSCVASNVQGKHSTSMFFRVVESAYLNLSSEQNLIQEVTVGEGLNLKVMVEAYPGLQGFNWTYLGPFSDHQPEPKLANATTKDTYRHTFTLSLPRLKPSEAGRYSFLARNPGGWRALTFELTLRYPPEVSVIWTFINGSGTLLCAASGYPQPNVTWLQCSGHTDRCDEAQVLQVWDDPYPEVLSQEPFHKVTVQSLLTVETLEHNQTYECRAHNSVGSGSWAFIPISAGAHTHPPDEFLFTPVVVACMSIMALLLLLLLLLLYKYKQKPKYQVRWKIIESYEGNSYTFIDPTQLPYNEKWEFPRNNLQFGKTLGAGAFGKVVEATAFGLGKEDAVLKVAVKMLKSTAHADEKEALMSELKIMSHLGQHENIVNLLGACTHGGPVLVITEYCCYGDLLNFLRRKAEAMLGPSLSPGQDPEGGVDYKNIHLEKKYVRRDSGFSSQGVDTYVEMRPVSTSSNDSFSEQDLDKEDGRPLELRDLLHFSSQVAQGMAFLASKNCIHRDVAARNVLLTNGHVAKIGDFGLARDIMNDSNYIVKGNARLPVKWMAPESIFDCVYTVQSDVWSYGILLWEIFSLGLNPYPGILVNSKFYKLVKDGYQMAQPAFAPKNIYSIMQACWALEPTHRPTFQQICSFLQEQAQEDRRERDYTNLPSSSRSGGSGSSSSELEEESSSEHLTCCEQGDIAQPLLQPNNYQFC

[28] = biological target: Homeodomain-interacting protein kinase 3 (Homo sapiens) (UniProt Q9H422); details: Compound concentration 1.0 uM
[29] = biological target: Serine/threonine-protein kinase 24 (Homo sapiens) (UniProt Q9Y6E0); details: Compound concentration 1.0 uM
[30] = biological target: Serine/threonine-protein kinase D3 (Homo sapiens) (UniProt O94806); details: Compound concentration 1.0 uM
[31] = biological target: AMP-activated protein kinase alpha-2/beta-1/gamma-3 (Homo sapiens) (UniProt P54646+Q9Y478+Q9UGI9); details: Compound concentration 1.0 uM
[32] = biological target: Dual specificity mitogen-activated protein kinase kinase 4 (Homo sapiens) (UniProt P45985); experiment: MAP2K4 Invitrogen Lab (UK) kinase screen (BI); details: Compound concentration 1.0 uM
[33] = biological target: Activin receptor type-1 (Homo sapiens) (UniProt Q04771); experiment: ACVR1 Invitrogen Lab (UK) kinase screen (BI); details: Compound concentration 1.0 uM
[34] = biological target: Aurora kinase C (Homo sapiens) (UniProt Q9UQB9); details: Compound concentration 1.0 uM
[35] = biological target: Tyrosine-protein kinase JAK2 (Homo sapiens) (UniProt O60674); details: Compound concentration 1.0 uM
[36] = biological target: Dual specificity mitogen-activated protein kinase kinase 6 (Homo sapiens) (UniProt P52564); experiment: MAP2K6 Invitrogen Lab (UK) kinase screen (BI); details: Compound concentration 1.0 uM
[37] = biological target: CDK2/Cyclin O (Homo sapiens) (UniProt P24941+P22674); experiment: CDK2/CYCLIN O Invitrogen Lab (UK) kinase screen (BI); type: protein-complex assay; details: Compound concentration 1.0 uM
[38] = biological target: Dual specificity tyrosine-phosphorylation-regulated kinase 1A (Homo sapiens) (UniProt Q13627); experiment: DYRK1A DUNDEE kinase screen (BI); details: Rattus norvegicus; Compound concentration 10.0 uM
[39] = biological target: Cyclin-G-associated kinase (Homo sapiens, UniProt O14976); experiment: NanoBRET (SGC-FFM) (GAK)
[40] = biological target: Calcium/calmodulin-dependent protein kinase type 1D (Homo sapiens) (UniProt Q8IU85); details: Compound concentration 1.0 uM
[41] = biological target: Dual specificity tyrosine-phosphorylation-regulated kinase 2 (Homo sapiens) (UniProt Q92630); experiment: DYRK2 Invitrogen Lab (UK) kinase screen (BI); details: Compound concentration 1.0 uM
[42] = biological target: Serine/threonine-protein kinase MARK1 (Homo sapiens) (UniProt Q9P0L2); details: Compound concentration 1.0 uM

Sequence of Natriuretic peptides A (Cavia porcellus) (P27596 whole entry): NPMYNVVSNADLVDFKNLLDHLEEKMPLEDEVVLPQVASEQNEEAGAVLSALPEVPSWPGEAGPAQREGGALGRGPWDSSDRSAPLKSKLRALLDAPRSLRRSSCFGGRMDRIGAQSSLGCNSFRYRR

CCC(F)(F)c1cc(N2CCC(S(C)(=O)=O)CC2)nc2sc(C(N)=O)c(N)c12 [BI-605906]
6.5 µM (not active): IC50 [39]
active: inhibition [6] 51.9% | residual activity ([13]; Compound concentration 10.0 uM) 38% | residual activity ([27]; Compound concentration 10.0 uM) 14%
inactive: residual activity [1] 100% | residual activity [2] 90% | residual activity [3] 105% | residual activity [4] 88% | residual activity [5] 95% | residual activity ([7]; Compound concentration 1.0 uM) 98% | residual activity ([7]; Compound concentration 10.0 uM) 71% | residual activity [8] 84% | inhibition [9] -0.02% | residual activity [10] 99% | residual activity [11] 94% | residual activity ([12]; Compound concentration 1.0 uM) 99% | residual activity ([12]; Compound concentration 10.0 uM) 96% | residual activity ([13]; Compound concentration 1.0 uM) 93% | residual activity [14] 82% | residual activity [15] 96% | residual activity ([16]; Compound concentration 1.0 uM) 81% | residual activity ([16]; Compound concentration 10.0 uM) 83% | residual activity [17] 103% | residual activity [18] 101% | residual activity [19] 92% | residual activity [20] 99% | residual activity [21] 82% | residual activity [22] 96% | residual activity [24] 105% | residual activity [25] 93% | residual activity [26] 95% | residual activity ([27]; Compound concentration 1.0 uM) 58% | residual activity [28] 95% | residual activity [29] 101% | residual activity [30] 91% | residual activity [31] 89% | residual activity [32] 79% | residual activity [33] 79% | residual activity [34] 95% | residual activity [35] 94% | residual activity [36] 75% | residual activity [37] 81% | residual activity [38] 74.9% | residual activity [40] 98% | residual activity [41] 62% | residual activity [42] 91%
68% (not active): activity at 10 µM [23]
